Reference: US7220784B2, “Substituted stilbenes and their reactions” (priority 2000, dated 2007)
Like-named read-outs stand apart in the source and are kept apart here.

Key:
K562 = assay: IC50 of aliquots after ex situ irradiation in a photochemical reactor; conditions: Homo sapiens, K562, light or radiation study, read-out: IC50 (K562) (nM)
K562 cells = assay: In situ ultra violet irradiation of dosed K562 cells, IC50; assay type: cell-based, human; conditions: Homo sapiens, read-out: IC50 K562

## COc1ccc(/C=C/c2cc(OC)c(OC)c(OC)c2)cc1O [trans-CA-4, trans-combretastatin A-4]
K562; 0 h
  IC50: 4000 nM
K562; 0.5 min
  IC50: 310 nM
K562; 1 min
  IC50: 530 nM
K562; 0.025 h
  IC50: 50 nM
K562; 2 min
  IC50: 20 nM
K562; 0.05 h
  IC50: 12 nM
K562; 4 min
  IC50: 9 nM
K562; 5 min
  IC50: 10 nM
K562; 0.125 h
  IC50: 3 nM
K562; 10 min
  IC50: 6 nM
K562; 12.5 min
  IC50: 4 nM
K562; 0.25 h
  IC50: 1 nM
K562; 17.5 min
  IC50: 3 nM
K562; 20 min
  IC50: 2 nM
K562 cells; K562, 0 h, in situ UV 0 mins (Table 6)
  IC50: 1200 nM
K562 cells; K562, 1 min, in situ UV 1 mins (Table 6)
  IC50: 3.6 nM
K562 cells; K562, 2 min, in situ UV 2 mins (Table 6)
  IC50: 2.9 nM
K562 cells; K562, 0.05 h, in situ UV 3 mins (Table 6)
  IC50: 1.7 nM
K562 cells; K562, 4 min, in situ UV 4 mins (Table 6)
  IC50: 4.4 nM
K562 cells; K562, 5 min, in situ UV 5 mins (Table 6)
  IC50: 2.7 nM
K562 cells; K562, 0.1 h, in situ UV 6 mins (Table 6)
  IC50: 2.9 nM
K562 cells; K562, 7 min, in situ UV 7 mins (Table 6)
  IC50: 1.9 nM
K562 cells; K562, 8 min, in situ UV 8 mins (Table 6)
  IC50: 3 nM
K562 cells; K562, 0.15 h, in situ UV 9 mins (Table 6)
  IC50: 2.5 nM
K562 cells; K562, 12.5 min, in situ UV 12.5 mins (Table 6)
  IC50: 2.4 nM
K562 cells; K562, 0.25 h, in situ UV 15.0 mins (Table 6)
  IC50: 2 nM
K562 cells; K562, 17.5 min, in situ UV 17.5 mins (Table 6)
  IC50: 1.7 nM
K562 cells; K562, 20 min, in situ UV 20.0 mins (Table 6)
  IC50: 2.7 nM
K562 cells; K562, in situ UV, repeated experiment, 0 secs (Table 7)
  IC50: 580 nM
K562 cells; K562, in situ UV, repeated experiment, 5 secs (Table 7)
  IC50: 35 nM
K562 cells; K562, in situ UV, repeated experiment, 10 secs (Table 7)
  IC50: 40 nM
K562 cells; K562, in situ UV, repeated experiment, 15 secs (Table 7)
  IC50: 20 nM
K562 cells; K562, in situ UV, repeated experiment, 20 secs (Table 7)
  IC50: 18 nM
K562 cells; K562, in situ UV, repeated experiment, 25 secs (Table 7)
  IC50: 17 nM
K562 cells; K562, in situ UV, repeated experiment, 30 secs (Table 7)
  IC50: 15 nM
K562 cells; K562, in situ UV, repeated experiment, 35 secs (Table 7)
  IC50: 11 nM
K562 cells; K562, in situ UV, repeated experiment, 40 secs (Table 7)
  IC50: 11 nM
K562 cells; K562, in situ UV, repeated experiment, 45 secs (Table 7)
  IC50: 9 nM
K562 cells; K562, in situ UV, repeated experiment, 50 secs (Table 7)
  IC50: 9 nM
K562 cells; K562, in situ UV, repeated experiment, 55 secs (Table 7)
  IC50: 9 nM
K562 cells; K562, in situ UV, repeated experiment, 60 secs (Table 7)
  IC50: 8 nM
